US20180289763A1, “COMPOSITION CONTAINING HERBAL MEDICINE EXTRACTS OF PINELLIA AND SCUTELLARIA FOR REDUCING SIDE EFFECTS DUE TO ANTICANCER DRUGS” (COMPREHENSIVE AND INTEGRATIVE MEDICINE INSTITUTE, priority 2013, published 2018)
Marks after values point to notes of the source that are not given here.

Columns and labels:
[1] = system: gastrin immunoreactive cells; experiment: Gastrin immunoreactive cells in pyloric mucosa; type: in vivo, rat
Source text: As a result of observing histopathological changes, the numbers of gastrin and serotonin immunoreactive cells in the pyloric mucosa and the number of serotonin immunoreactive cells in the colonic mucosa that were detected are shown in Table 9.
Meanwhile, in the ondansetron administered group, a change in the number of gastrin immunoreactive cells in the pyloric mucosa similar to that in the cisplatin control was shown (Table 9, and FIG. 8).

[2] = system: gastrin; experiment: Gastrin content in pyloric tissues; type: in vivo, rat
Source text: Meanwhile, in the ondansetron administered group, a change in pylorus gastrin content similar to that in the cisplatin control was shown (FIG. 4(A)).

[3] = system: serotonin; experiment: Serotonin content in pyloric tissues; type: in vivo, rat
Source text: Meanwhile, in the ondansetron administered group, a change in pylorus serotonin content similar to that in the cisplatin control was shown (FIG. 4(B)).

[4] = Body weight and body weight gain in cisplatin-treated rats; type: in vivo, rat
Protocol: Body weights and body weight gains in each group that were measured after the first and fourth administrations of cisplatin and the necropsy are shown in Table 3.

[5] = system: monoamine oxidase; experiment: Pylorus monoamine oxidase activity; type: in vivo, rat
Protocol: Compared to the normal vehicle control, in the cisplatin control, a significant (p<0.01) decrease in activity of a serotonin lyase, monoamine oxidase, in pyloric tissues was shown, but in the Pinelliae Rhizoma and Scutellariae Radix extract 200, 100 and 5 mg/kg administered groups, compared to the cisplatin control, significant (p<0.01) increases in monoamine oxidase activity in pyloric tissues were dose-dependently shown. Meanwhile, in the ondansetron administered group, a change in monoamine oxidase activity similar to that in the cisplatin control was shown (FIG. 3(B)).

[6] = system: tryptophan hydroxylase; experiment: Pylorus tryptophan hydroxylase activity; type: in vivo, rat
Source text: Meanwhile, in the ondansetron administered group, a change in tryptophan hydroxylase activity similar to that in the cisplatin control was shown (FIG. 3(A)).

[7] = system: fundus antioxidant defense system; experiment: Fundus antioxidant defense system (MDA, GSH, CAT, SOD); type: in vivo, rat
Source text: Changes in MDA content, GSH content, SOD activity, and CAT activity in the fundus in each group that were observed are shown in Table 6.

[8] = system: cisplatin-induced colonic mucosa atrophy; type: in vivo, rat; settings: 1 mg/kg s.c., 14 days
Source text: In the cisplatin control, considerable decreases in the mucous producing cell number per unit area (mm^2) and fecal pellet surface mucous thickness were caused along with the atrophy of the total colonic mucosa containing fecal pellets, and thus, compared to the normal vehicle control, significant (p<0.01) decreases in fecal pellet-containing colonic mucosa thickness, the mucous producing cell number in the mucosa and fecal pellet surface mucous thickness were shown.

[9] = system: serotonin immunoreactive cells; experiment: Serotonin immunoreactive cells in pyloric and colonic mucosa; type: in vivo, rat
Protocol: (§1) In the examples, to provide an integrated medical method to reduce side effects caused by a chemotherapeutic agent with respect to a patient with a neoplastic disease, an effect of co-administration of a Pinelliae Rhizoma and Scutellariae Radix extract with respect to a digestive motility disorder caused by the chemotherapeutic agent was examined. In the following examples, rats with a gastrointestinal motility disorder caused by cisplatin were used. 2 mg/kg of cisplatin was administered once a week for 5 weeks, each of 200, 100 and 50 mg/kg of the Pinelliae Rhizoma and Scutellariae Radix extracts were administered at 14 days from the fourth administration of cisplatin, influences on gastrointestinal motility, damage to a digestive tract mucosa and physiology of digestive tract endocrine cells were observed as well as an antioxidative effect, experimental results were compared to an ondansetron 1 mg/kg administered group, wherein the ondansetron was known as a representative 5-HT3 receptor blocking agent to have an effective effect on a cisplatin-induced gastrointestinal motility disorder.
(§2) In this example, as laboratory animals, Sprague-Dawley, Slc: SD rats (6-week-old males, SLC, Shizuoka, Japan) were used. 60 healthy SPF rats were purchased, acclimated for 14 days, and 8 laboratory animals having uniform body weights (intact control: 249.13±12.12 g, 232˜264 g; cisplatin treated group: 225.35±10.58 g, 206˜243 g) when fasting after three weeks of cisplatin administration per each group were selected to be used in the experiment. […] All of the laboratory animals underwent fasting for about 18 hours at each of the first treatment of cisplatin, the first drug administration and the final necropsy (even in this period, drinking water was freely provided), individuals were identified using picric acid.
(§3) To cause a gastrointestinal motility disorder, 2 mg/kg of cisplatin (Sigma-Aldrich, St. Louise, Mo., USA) was dissolved in a saline solution, and the resulting solution was intraperitoneally administered at a dose of 1 ml/kg once a week for 5 weeks, thereby causing a chronic gastrointestinal motility disorder, and in the normal vehicle control, the same dose of a saline solution, instead of cisplatin, was intraperitoneally administered by the same method.
(§4) A Pinelliae Rhizoma and Scutellariae Radix herbal medicine was dissolved in sterile distilled water at a dose of 5 ml/kg (a body weight of the animal) three weeks after the first cisplatin administration, and forcibly and orally administered with a 5 ml syringe equipped with a metal zonde 30 minutes after the fourth cisplatin administration once a day for 14 days. The ondansetron was dissolved in a saline solution, subcutaneously administered with the same frequency as the Pinelliae Rhizoma and Scutellariae Radix herbal medicine at a dose of 1 ml/kg, and in the normal vehicle and cisplatin controls, instead of the Pinelliae Rhizoma and Scutellariae Radix extract or ondansetron, only the same dose of sterile distilled water was orally administered.
(§5) An effect on the gastrointestinal motility was evaluated by evaluating a charcoal transit ratio in the small intestine, effects on constipation were evaluated by observing a body weight, the change in fecal parameters (the fecal pellet number, the fecal weight, and the water content in the feces), the histopathological changes in the colon containing fecal pellets—changes in fecal pellet surface mucosa thickness, mucous producing cell number per mm2 of the mucosa and average mucosa thickness.

[10] = system: cisplatin-induced gastrointestinal tract damage (fundic and pyloric mucosa); experiment: Histopathology of fundus and pylorus (mucosa thickness, degenerative mucosa percentage)
Protocol: as §1, §2, §3, §4, §5

[11] = system: cisplatin-induced gastrointestinal motility disorder; experiment: Fecal parameters (pellet number, wet and dry weight, water content); type: in vivo, rat; settings: for Fecal Dry-weight / Fecal Water content / Fecal Wet-weight / Fecal pellet number: feces of 24 hours
[12] = system: cisplatin-induced gastrointestinal motility disorder; experiment: Charcoal transit ratio in small intestine (gastrointestinal motility); type: in vivo, rat; settings: for Distance charcoal meal transferred / GI charcoal transit ratio: during 30 min
Source text: Also, permeation of a substance through the digestive tract represents the motility in the entire gastrointestinal tract, measurement of a charcoal transit ratio in the small intestine is known to be very useful to diagnose whether or not there is a problem in digestive motility (Wintola et al., 2010), and a decrease in the charcoal transit ratio in the small intestine indicates a decrease in digestive motility such as the fecal retention, that is, constipation (Sagar et al., 2005; Meite et al., 2010).
A total length of a small intestine and a distance that a charcoal meal was transferred in the small intestine were measured, and the charcoal transit ratio was calculated, and then the results are shown in Table 4.

[13] = 1 mg/kg s.c., 14 days, cisplatin-treated rats
[14] = 1 mg/kg s.c., 14 days, compared to the cisplatin control
[15] = cisplatin-treated rats, at sacrifice
[16] = compared to the cisplatin control
[17] = cisplatin 2 mg/kg i.p. once a week for 5 weeks
[18] = cisplatin control (2 mg/kg i.p. weekly) compared to the normal vehicle control
[19] = cisplatin control (2 mg/kg i.p. weekly) compared to the normal vehicle control, 33 to 34 days after first cisplatin

Cc1nccn1CC1CCc2c(c3ccccc3n2C)C1=O (centres unmarked) [Ondansetron, ondansetron]
Number of Gastrin-IR cells in the pyloric mucosa [1, 13]: 11.63 ± 3.70^d cells/mm^2 of mucosa | change of number of gastrin immunoreactive cells per unit area of the pyloric mucosa [1, 14]: −1.06% | change of gastrin content in pyloric tissues at the final sacrifice [2, 14]: −3.05% | change of serotonin content in pyloric tissues at the final sacrifice [3, 14]: −4.04% | Body weight Sacrifice [C] [4, 13]: 212.38 ± 4.66^ab g | Body weight gain Test article dosing periods [C − B] [4, 13]: −14.50 ± 5.68^de g | Body weight gain Total experiment periods [C − A] [4, 13]: 14.50 ± 11.64^de g | change of body weight gain during the total 5-week experiment [4, 14]: 463.50% | change of body weight gain for 2 weeks after the drug administration [4, 14]: 52.46% | change of monoamine oxidase activity in pyloric tissues at the final sacrifice [5, 14]: 5.05% | change of tryptophan hydroxylase activity in pyloric tissues at the final sacrifice [6, 14]: −4.35% | Fundus Catalase [7, 13]: 63.48 ± 12.39^ac nM/mim/mg tissue | Fundus Glutathione [7, 13]: 1.81 ± 0.17^de μM/mg tissue | Fundus Malondialdehyde [7, 13]: 9.67 ± 1.93^ac nM/g tissue | Fundus Superoxide dismutase [7, 13]: 103.00 ± 22.32^ac nM/mim/mg tissue | change of CAT activity in fundus tissues at the final sacrifice [7, 14]: 44.10% | change of GSH content in the fundus tissue at the final sacrifice [7, 14]: 48.11% | change of MDA content in fundus tissues at the final sacrifice [7, 14]: −40.45% | change of SOD activity in the fundus tissue at the final sacrifice [7, 14]: 43.13% | Colonic mucosa thickness [8, 15]: 192.08 ± 27.34^ac μm | Fecal pellet surface mucous thickness [8, 15]: 28.00 ± 6.98^df μm | Mucous producing cell number [8, 15]: 306.63 ± 78.94^ac cells/mm^2 | change of fecal pellet surface mucous thickness in the colon [8, 16]: 239.94% | change of fecal pellet-containing colon average mucosa thickness [8, 16]: 72.06% | change of mucous producing cell number in the colonic mucosa [8, 16]: 126.92% | Number of Serotonin-IR cells in the colonic mucosa [9, 13]: 73.00 ± 17.65^a cells/mm^2 of mucosa | Number of Serotonin-IR cells in the pyloric mucosa [9, 13]: 64.00 ± 10.45^a cells/mm^2 of mucosa | change of number of serotonin immunoreactive cells per unit area of the colonic mucosa [9, 14]: −1.02% | change of number of serotonin immunoreactive cells per unit area of the pyloric mucosa [9, 14]: −2.10% | Fundus Degenerative mucosa percentage [10, 13]: 35.42 ± 4.69^de %/mucosa | Fundus Total mucosa thickness [10, 13]: 592.37 ± 51.61^ac μm | Pylorus Degenerative mucosa percentage [10, 13]: 41.08 ± 10.77^ac %/mucosa | Pylorus Total mucosa thickness [10, 13]: 240.01 ± 36.08^ac μm | change of average fundic mucosa thickness [10, 14]: 35.86% | change of pylorus average mucosa thickness [10, 14]: 64.25% | Fecal Dry-weight [11, 13]: 5.27 ± 1.10 g | Fecal Water content [11, 13]: 55.32 ± 13.07^ef % | Fecal Wet-weight [11, 13]: 12.55 ± 3.71^ab g | Fecal pellet number [11, 13]: 25.38 ± 6.95^ac | change of average dry weight of feces for 24 hours [11, 14]: 2.48% | change of average water content in feces excreted for 24 hours [11, 14]: 68.34% | change of average wet weight of the feces excreted for 24 hours [11, 14]: 63.91% | change of total number of fecal pellets excreted for 24 hours [11, 14]: 61.11% | Distance charcoal meal transferred [12, 13]: 65.13 ± 10.68^ac cm | GI charcoal transit ratio [12, 13]: 50.80 ± 8.85^ac % | change of charcoal transit ratio in the small intestine [12, 14]: 42.66% | change of distance that the charcoal meal was transferred in the small intestine [12, 14]: 44.72%

N.N.[Cl][Pt][Cl] [Cisplatin, cis-diaminedichloroplatinum II]
Number of Gastrin-IR cells in the pyloric mucosa [1, 17]: 11.75 ± 3.77^d cells/mm^2 of mucosa | change of number of gastrin immunoreactive cells per unit area of the pyloric mucosa [1, 18]: −86.42% | change of gastrin content in pyloric tissues at the final sacrifice [2, 18]: −59.22% | change of serotonin content in pyloric tissues at the final sacrifice [3, 18]: 279.57% | Body weight Sacrifice [C] [4, 17]: 195.13 ± 12.96^a g | Body weight gain Test article dosing periods [C − B] [4, 17]: −29.88 ± 3.04^d g | Body weight gain Total experiment periods [C − A] [4, 17]: −4.00 ± 7.01^d g | Body weight At 4th cisplatin treatment [B] ([4]; cisplatin 2 mg/kg i.p. once a week, three weeks after first administration): 225.00 ± 13.90^a g | change of body weight gain during the total 5-week experiment [4, 18]: −107.34% | change of body weight gain for 2 weeks after the drug administration [4, 18]: −896.67% | change of monoamine oxidase activity in pyloric tissues at the final sacrifice [5, 18]: −68.47% | change of tryptophan hydroxylase activity in pyloric tissues at the final sacrifice [6, 18]: 184.55% | Fundus Catalase [7, 17]: 44.06 ± 8.98^a nM/mim/mg tissue | Fundus Glutathione [7, 17]: 1.22 ± 0.40^d μM/mg tissue | Fundus Malondialdehyde [7, 17]: 16.24 ± 2.27^a nM/g tissue | Fundus Superoxide dismutase [7, 17]: 71.96 ± 15.54^a nM/mim/mg tissue | change of CAT activity in fundus tissues at the final sacrifice [7, 18]: −55.83% | change of GSH content in the fundus tissue at the final sacrifice [7, 18]: −72.46% | change of MDA content in fundus tissues at the final sacrifice [7, 18]: 327.30% | change of SOD activity in the fundus tissue at the final sacrifice [7, 18]: −56.87% | Number of Serotonin-IR cells in the colonic mucosa [9, 17]: 73.75 ± 11.79^a cells/mm^2 of mucosa | Number of Serotonin-IR cells in the pyloric mucosa [9, 17]: 65.38 ± 11.02^a cells/mm^2 of mucosa | change of number of serotonin immunoreactive cells per unit area of the colonic mucosa [9, 18]: 514.58% | change of number of serotonin immunoreactive cells per unit area of the pyloric mucosa [9, 18]: 530.12% | Fundus Degenerative mucosa percentage [10, 17]: 54.89 ± 10.97^d %/mucosa | Fundus Total mucosa thickness [10, 17]: 436.02 ± 87.18^a μm | Pylorus Degenerative mucosa percentage [10, 17]: 68.26 ± 10.44^a %/mucosa | Pylorus Total mucosa thickness [10, 17]: 146.12 ± 26.03^a μm | change of average fundic mucosa thickness [10, 18]: −47.53% | change of pylorus average mucosa thickness [10, 18]: −61.72% | Fecal Dry-weight [11, 17]: 5.14 ± 1.51 g | Fecal Water content [11, 17]: 32.86 ± 6.45^d % | Fecal Wet-weight [11, 17]: 7.66 ± 2.14^a g | Fecal pellet number ([11]; cisplatin 2 mg/kg i.p. once a week for 5 weeks, 33 to 34 days after first cisplatin): 15.75 ± 5.50^a | change of average dry weight of feces for 24 hours [11, 19]: −7.30% | change of average water content in feces excreted for 24 hours [11, 19]: −54.47% | change of average wet weight of the feces excreted for 24 hours [11, 19]: −62.34% | change of total number of fecal pellets excreted for 24 hours [11, 19]: −61.23% | Distance charcoal meal transferred [12, 17]: 45.00 ± 11.08^a cm | GI charcoal transit ratio [12, 17]: 35.61 ± 8.66^a % | change of charcoal transit ratio in the small intestine [12, 18]: −53.09% | change of distance that the charcoal meal was transferred in the small intestine [12, 18]: −53.06%
